Consider 37 compounds from patent publication US6967196B1, “Sulfonamide compounds and uses thereof” (Bristol-Myers Squibb Company, priority 1999, dated 2005).

Counter-ions that a name gives are not always drawn.

In the first experiment the test system is amyloid β production in transfected H4 (human neuroglioma) cells stably expressing APP constructs. As to the kind of experiment: In vitro cell-based assay of inhibitors of amyloid β production (ELISA). Conditions: Homo sapiens, 16 h, transfected H4 cells expressing APP, approximately 16 hours incubation, amyloid β in medium by ELISA; read-out: ACTIVITY (IC50, inhibition of amyloid β production). The procedure, abridged: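 Sandwich ELISA read-out: Aβ in conditioned medium captured via C-terminal epitope mAb, detected with N-terminus-specific rabbit polyclonal, quantified from a standard curve. Compounds 10-100 μM, ~16 h exposure. Active = ≥50% inhibition vs control without significant cytotoxicity; dose-response follows.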
As for `CC(CCOC(=O)NCCCn1ccnc1)N(c1cc(Cl)ccc1CO)S(=O)(=O)c1ccc(Cl)cc1` (stereo not shown) [Example 1289], the IC50 is ≤ 25 nM.
For `CC(CCOC(=O)NCCn1ccnc1)N(c1cc(Cl)ccc1CO)S(=O)(=O)c1ccc(Cl)cc1` (stereo not shown) [Example 1291], the IC50 was ≤ 25 nM.
On the same count and under the same terms, for `C[C@H](C(=O)N[C@H]1CC[C@H](O)CC1)N(c1cc(Cl)ccc1F)S(=O)(=O)c1ccc(Cl)cc1` [Example 1338] the value was 100 to 500 nM.

Still in this experiment, the particulars now being: Homo sapiens, 16 h, transfected H4 cells stably expressing APP constructs; approximately 16 hours incubation; amyloid β in medium by ELISA; read-out: ACTIVITY (IC50, inhibition of amyloid β production).
In the case of `CNS(=O)(=O)CCC[C@@H](C)N(c1cc(Cl)ccc1Cl)S(=O)(=O)c1ccc(Cl)cc1` [Example 1199, 4-chloro-N-[2,5-dichlorophenyl]-N-[4-[(methylamino)sulfonyl]-1(R)-methylbutyl]benzenesulfonamide], the IC50 is ≤ 25 nM.
As to `C[C@H](CCCS(=O)(=O)O)N(c1cc(Cl)ccc1F)S(=O)(=O)c1ccc(Cl)cc1` [Example 1192, (4R)-4-[N-[5-chloro-2-fluorophenyl][(4-chlorophenyl)sulfonyl]amino]pentylsulfonic acid], the IC50 was 100 to 500 nM.
For the compound `CCCC(c1cc(F)ccc1[C@@H](C)N(c1cc(F)ccc1F)S(=O)(=O)c1ccc(Cl)cc1)N1CCS(=O)(=O)C(C)C1` (stereo partly drawn) [Example 1278, (R)-4-Chloro-N-(2,5-difluorophenyl)-N-[1-[4-fluoro-2-[1-(1,1-dioxo-2-methyl-4-thiomorpholinyl)butyl]phenyl]ethyl]benzenesulfonamide], the IC50 was ≤ 25 nM.

The same experiment, now with this note: Homo sapiens, 16 h, transfected H4 cells stably expressing APP; approximately 16 hours incubation; amyloid β in medium by ELISA; Table B; read-out: ACTIVITY (IC50, inhibition of amyloid β production).
Regarding `CC(NC(=O)OCCc1cc(F)ccc1[C@@H](C)N(c1cc(F)ccc1F)S(=O)(=O)c1ccc(Cl)cc1)c1ccccc1` (stereo partly drawn) [Example 385, 2-[2-((1R)-1-{[(4-chlorophenyl)sulfonyl]-2,5-difluoroanilino}ethyl)-5-fluorophenyl]ethyl 1 phenylethylcarbamate], the IC50 lay within 50 to 100 nM.

Still in this experiment, the particulars now being: Homo sapiens, 16 h, transfected H4 cells stably expressing APP; approximately 16 hours incubation; amyloid β in medium by ELISA; read-out: ACTIVITY (IC50, inhibition of amyloid β production).
`O=S(=O)(c1ccc(Cl)cc1)N(Cc1ccccc1OCCCCN1CCCCC1)c1ccccc1` [Example 977, 4-chloro-N-phenyl-N-{2-[4-(1-piperidinyl)butoxy]benzyl}benzenesulfonamide hydrochloride]: the IC50 is > 500 nM.
Consider `CC1CC(C)CN(CCCOc2ccccc2CN(c2ccccc2)S(=O)(=O)c2ccc(Cl)cc2)C1` (stereo not shown) [Example 926, 4-chloro-N-{2-[3-(3,5-dimethyl-1-piperidinyl)propoxy]benzyl}-N-phenylbenzenesulfonamide hydrochloride], for which the half-maximal inhibitory concentration (IC50) is > 500 nM.
Still for that read-out and setting: for `O=S(=O)(c1ccc(Cl)cc1)N(Cc1ccccc1OCCCN1CCNCC1)c1ccccc1` [Example 944, 4-chloro-N-phenyl-N-{2-[3-(1-piperazinyl)propoxy]benzyl}benzenesulfonamide dihydrochloride] the value was > 500 nM.

Still in this experiment, the particulars now being: transfected H4 cells stably expressing APP constructs; approximately 16 hours incubation; amyloid β in medium by ELISA; read-out: ACTIVITY (IC50, inhibition of amyloid β production).
As for `CC(C)SCCC[C@@H](C)N(c1cc(Cl)ccc1Cl)S(=O)(=O)c1ccc(Cl)cc1` [Example 1190], the IC50 lay within 100 to 500 nM.
As to `CC(CC[C@@H](C)N(c1cc(Cl)ccc1Cl)S(=O)(=O)c1ccc(Cl)cc1)N1CCCC(S(C)(=O)=O)C1` (stereo partly shown) [Example 1140], the IC50 fell in the range of 100 to 500 nM.
On to `COC(=O)[C@@H](CC(C)C)NC(=O)CCC[C@@H](C)N(c1cc(Cl)ccc1F)S(=O)(=O)c1ccc(Cl)cc1` [Example 1267, (R)-4-Chloro-N-(5-chloro-2-fluorophenyl)-N-[5-[N-(R)-[1-(methoxycarbonyl)-3-methylbutyl]amino]-1-methyl-5-oxopentyl]benzenesulfonamide], for which the IC50 lay in the range of 25 to 50 nM.
For the compound `CCS(=O)(=O)CCC[C@@H](C)N(c1cc(Cl)ccc1Cl)S(=O)(=O)c1ccc(Cl)cc1` [Example 1164, 4-chloro-N-[2,5-dichlorophenyl]-N-[1(R)-methyl-(4-ethylsulfonyl]butyl]benzenesulfonamide], the IC50 is ≤ 25 nM.
Still for that read-out and setting: for `COC(=O)[C@@H](NC(=O)CCC[C@@H](C)N(c1cc(Cl)ccc1F)S(=O)(=O)c1ccc(Cl)cc1)C(C)C` [Example 1264, (R)-4-Chloro-N-(5-chloro-2-fluorophenyl)-N-[5-[N-(S)-[1-(methoxycarbonyl)-2-methylpropyl]amino]-1-methyl-6-oxopentyl]benzenesulfonamide] the value was 100 to 500 nM.

The experiment is the same for the next values; noted with them: transfected H4 cells stably expressing APP; approx. 16 h incubation; amyloid β in medium by ELISA; read-out: ACTIVITY (IC50, inhibition of amyloid β production).
On to `O=C(c1ccccc1F)N1CCCCC1CCOc1ccccc1CN(c1cc(F)ccc1F)S(=O)(=O)c1ccc(Cl)cc1` (stereo not shown) [Example 787], for which the IC50 was in the range of 100 to 500 nM.
Turning to “N-{3-[2-(1-{[(4-chlorophenyl)sulfonyl]-2,5-difluoroanilino}ethyl)phenoxy]propyl}-2,3,4,5-tetrafluoro-N-methylbenzamide [Example 778]”, the IC50 lay within 100 to 500 nM.
The same measure, in the same setting: for “N-{3-[2-({[(4-chlorophenyl)sulfonyl]-2,5-difluoroanilino}methyl)phenoxy]propyl}-N,3-dimethylbenzamide [Example 696]” the value was 100 to 500 nM; for “N-{3-[2-(1-{[(4-chlorophenyl)sulfonyl]-2,5-difluoroanilino}ethyl)phenoxy]butyl}-N-ethyl-2-furamide [Example 708]”, 100 to 500 nM.
As to “N-{3-[2-(1-{[(4-chlorophenyl)sulfonyl]-2,5-difluoroanilino}ethyl)phenoxy]propyl}-2,5-bis(trifluoromethyl)benzamide [Example 736]”, the IC50 lay in the range of 100 to 500 nM.
Turning to “benzyl 3-[2-(1-{[(4-chlorophenyl)sulfonyl]-2,5-difluoroanilino}ethyl)phenoxy]propyl(methyl)carbamate [Example 678]”, the IC50 lay within 100 to 500 nM.
Regarding “N-{2-[2-(1-{[(4-chlorophenyl)sulfonyl]-2,5-difluoroanilino}ethyl)phenoxy]ethyl}-N-ethyl-3-methylbutanamide [Example 694]”, the IC50 fell in the range of 100 to 500 nM.
“2-((1R)-1-{[(4-chlorophenyl)-sulfonyl]-2,5-difluoroanilino}ethyl)benzyl benzyl(methyl)carbamate [Example 715]”: the IC50 lay in the range of 100 to 500 nM.
As for “N-{3-[2-({[(4-chlorophenyl)sulfonyl]-2,5-difluoroanilino}methyl)phenoxy]propyl}-2-iodo-N-methylbenzamide [Example 716]”, the IC50 fell in the range of 100 to 500 nM.
Consider `CC(c1ccccc1OCCCNC(=O)c1cccc(F)c1)N(c1cc(F)ccc1F)S(=O)(=O)c1ccc(Cl)cc1` (stereo not shown) [Example 761], for which the IC50 lay within 100 to 500 nM.
“3-chloro-N-{3-[2-(1-{[(4-chlorophenyl)sulfonyl]-2,5-difluoroanilino}ethyl)phenoxy]propyl}-N-methylbenzamide [Example 688]”: the IC50 was 100 to 500 nM.
The same measure, in the same setting: for `CC(C)C[C@H](NC(=O)CCCC[C@@H](C)N(c1cc(Cl)ccc1F)S(=O)(=O)c1ccc(Cl)cc1)C(=O)O` [Example 548, (R)-4-Chloro-N-(5-chloro-2-fluorophenyl)-N-[6-[N-(S)-[1-(carboxy)-3-methylbutyl]amino]-1-methyl-6-oxohexyl]benzenesulfonamide] the value was 100 to 500 nM; for “N-{4-[2-(1-{[(4-chlorophenyl)sulfonyl]-2,5-difluoroanilino}ethyl)phenoxy]butyl}-2-ethyl-N-methylhexanamide [Example 676]”, 100 to 500 nM.
Consider “N-{3-[2-(1-{[(4-chlorophenyl)sulfonyl]-2,5-difluoroanilino}ethyl)phenoxy]propyl}-3-methoxybenzamide [Example 690]”, for which the IC50 fell in the range of 100 to 500 nM.

The experiment is the same for the next values; noted with them: transfected H4 cells stably expressing APP; approximately 16 hours incubation; amyloid β in medium by ELISA; Table B; read-out: ACTIVITY (IC50, inhibition of amyloid β production).
Consider “4-tert-butyl-N-{3-[2-(1-{[(4-chlorophenyl)sulfonyl]-2,5-difluoroanilino}ethyl)phenoxy]propyl}benzamide [Example 274]”, for which the half-inhibitory concentration (IC50) is 25 to 50 nM.
Turning to `C[C@H](c1ccc(F)cc1CS(=O)(=O)CCC(=O)O)N(c1cc(F)ccc1F)S(=O)(=O)c1ccc(Cl)cc1` [Example 467, 3-{[2-((1R)-1-{[(4-chlorophenyl)sulfonyl]-2,5-difluoroanilino}ethyl)-5-fluorobenzyl]sulfonyl}propanoic Acid], the IC50 is 50 to 100 nM.
Still for that read-out and setting: to “N-{2-[2-(1-{[(4-chlorophenyl)sulfonyl]-2,5-difluoroanilino}ethyl)phenoxy]ethyl}-N-ethylpropanamide [Example 504]” belongs 100 to 500 nM.

The same experiment, now with this note: transfected H4 cells stably expressing APP; approximately 16 hours incubation; amyloid β in medium by ELISA; read-out: ACTIVITY (IC50, inhibition of amyloid β production).
For “2-((1R)-1-{[(4-chlorophenyl)sulfonyl]-2,5-difluoroanilino}ethyl)benzyl (1S)-1-phenylethylcarbamate [Example 823]”, the IC50 was 100 to 500 nM.
The same measure, in the same setting: for “2-((1R)-1-{[(4-chlorophenyl)sulfonyl]-2,5-difluoroanilino}ethyl)benzyl 3,4-difluorobenzylcarbamate [Example 961]” the value was > 500 nM; for “2-({[(4-chlorophenyl)sulfonyl]anilino}methyl)phenyl trifluoromethanesulfonate [Example 1004]”, > 500 nM; for `O=S(=O)(c1ccc(Cl)cc1)N(CCc1cccc(OCCCN2CCCCC2)c1)c1ccccc1` [Example 956, 4-chloro-N-phenyl-N-(2-{3-[3-(1-piperidinyl)propoxy]phenyl}ethyl)benzeneslfonamide hydrochloride], > 500 nM.
Turning to “N-{3-[2-(1-{[(4-chlorophenyl)sulfonyl]-2,5-difluoroanilino}ethyl)phenoxy]propyl}-N-methyl-3,5-bis(trifluoromethyl)benzamide [Example 934]”, the IC50 is > 500 nM.
